Measurements as given in patent US20230321055A1, “PREVENTIVE TREATMENT OF MIGRAINE” (priority 2022, published 2023).

System: participants with CM and moderate to severe symptoms of depression
Experiment: Same phase 3 study: analysis of participants with chronic migraine and moderate to severe symptoms of depression (PHQ-9 ≥10)
Type: in vivo, human
Parameters: MSQ v2.1 RFR, Change from baseline, mean / MSQ v2.1 RFP, Change from baseline, mean / MSQ v2.1 EF, Change from baseline, mean / MSQ v2.1 RFR, MMRM, LS mean change / MSQ v2.1 RFP, MMRM, LS mean change / MSQ v2.1 EF, MMRM, LS mean change / HIT-6, Change from baseline, mean / HIT-6, MMRM, LS mean change: scale not given here
Conditions: 60 mg QD
Description: Depression is a common comorbidity in people with migraine and is a risk factor for transformation of EM to CM. Depressive symptoms predict increases in headache-related disability and poor health-related quality of life (HRQoL) in people with migraine. Thus, trial data analysis was used to evaluate the effect of atogepant in participants with CM and baseline symptoms of moderate to severe depression. Specifically, analysis of trial data evaluated the impact of atogepant on change in monthly migraine days, ≥50% and ≥75% responder rates, change in MSQ v2.1 domain scores, and PGIC in participants with CM and moderate to severe depression symptomology. PHQ-9 is a validated, screening and diagnostic tool designed to improve the recognition rate of depression and facilitates diagnosis and treatment. A cut-off score of ≥10 was used to identify participants with moderate or severe depressive symptoms, to determine eligibility and as a continuous outcome to measure changes in depression. As disclosed hereinabove, the MSQ v2.1 is a 14-item measure of health-related quality of life evaluating impacts attributed to migraine over the past 4 weeks and comprises three domains: Role Function-Restrictive (RFR), Role Function-Preventive (RFP), and Emotional Function (EF). PGIC is a single item used to measure the subject's impression of overall change in migraine since the first dose of study intervention. Findings for the atogepant 60 mg QD dose are presented herein. […] For the endpoint change from baseline in monthly migraine days and each MSQ v2.1 domain score, the comparison between treatment groups was analyzed using a restricted maximum likelihood-based mixed model for repeated measures (MMRM). Logistic regression models were used to analyze PGIC responder at week 12 and ≥50% or 75% responder rates across 12-week double-blind treatment period. ANCOVA model was used to analyze change from baseline in PHQ-9 score at week 12.
Analysis of trial data evaluated the impact of atogepant on headache day reduction, moderate/severe headache days, acute medication use day reduction, impacts of headache and migraine as evaluated by the HIT-6 and AIM-D, and symptoms of moderate to severe depression as measured by PHQ-9. A cut-off score of ≥10 was used to identify participants with moderate or severe depressive symptoms, to determine eligibility and as a continuous outcome to measure changes in depressive symptoms. Findings for the atogepant 60 mg QD dose are presented here. Similar results for the 30 BID dose (excluded for simplicity). For endpoints other than PHQ-9, the comparison between treatment groups were analyzed using a restricted maximum likelihood-based mixed model for repeated measures (MMRM). ANCOVA model was used to analyze PHQ-9 related endpoints.

[1] = across the 12-week treatment period, mITT, PHQ-9 ≥10 subgroup (n = 109)
[2] = mITT, PHQ-9 ≥10 subgroup (n = 109)
[3] = mITT, PHQ-9 ≥10 subgroup (n = 109), 12-week treatment period
[4] = week 12, mITT, PHQ-9 ≥10 subgroup (n = 109)

C[C@@H]1[C@H](c2c(F)ccc(F)c2F)C[C@H](NC(=O)c2cnc3c(c2)C[C@@]2(C3)C(=O)Nc3ncccc32)C(=O)N1CC(F)(F)F [Atogepant, (S)—N—((3S,5S,6R)-6-methyl-2-oxo-1-(2,2,2-trifluoroethyl)-5-(2,3,6-trifluorophenyl)piperidin-3-yl)-2′-oxo-1′,2′,5,7-tetrahydrospiro[cyclopenta[b]pyridine-6,3′-pyrrolo[2,3-b]pyridine]-3-carboxamide]
AIM-D PDA, Change from baseline, mean [1]: −16.09 | AIM-D PDA, LSMD vs placebo [1]: −5.91 | AIM-D PDA, MMRM, LS mean change [1]: −13.50 | AIM-D PI, Change from baseline, mean [1]: −13.84 | AIM-D PI, LSMD vs placebo [1]: −4.63 | AIM-D PI, MMRM, LS mean change [1]: −11.68 | AIM-D PDA, Months 1-3, mean [2]: 22.29 | AIM-D PI, Months 1-3, mean [2]: 20.07 | Monthly Acute Medication Use Days, Post-baseline (Month 1-3), mean [2]: 9.51 | Monthly Headache Days, Post-baseline (Month 1-3), mean [2]: 15.24 | Monthly Migraine Days, Post-baseline (Month 1-3), mean [2]: 12.90 | Monthly Moderate/Severe Headache Days, Post-baseline (Month 1-3), mean [2]: 10.22 | PHQ-9, Week 12, mean [2]: 8.81 | ≥50% Responders, Odds ratio vs placebo [2]: 3.70 | ≥75% Responders, Odds ratio vs placebo [2]: 13.64 | Monthly Acute Medication Use Days, Change from baseline, mean [3]: −7.52 | Monthly Acute Medication Use Days, LSMD vs placebo [3]: −3.53 | Monthly Acute Medication Use Days, MMRM, LS mean change [3]: −6.57 | Monthly Headache Days, Change from baseline, mean [3]: −6.94 | Monthly Headache Days, LSMD vs placebo [3]: −2.86 | Monthly Headache Days, MMRM, LS mean change [3]: −6.52 | Monthly Migraine Days, Change from baseline, mean [3]: −7.23 | Monthly Migraine Days, LSMD vs placebo [3]: −3.04 | Monthly Migraine Days, MMRM, LS mean change [3]: −6.71 | Monthly Moderate/Severe Headache Days, Change from baseline, mean [3]: −7.34 | Monthly Moderate/Severe Headache Days, LSMD vs placebo [3]: −2.68 | Monthly Moderate/Severe Headache Days, MMRM, LS mean change [3]: −6.77 | ≥50% Responders, Odds ratio vs placebo (mITT, PHQ-9 ≥10 subgroup (n = 109), listed as atogepant): 3.7 | PGIC much better or very much better, OR vs placebo (week 12, PHQ-9 ≥10 subgroup): 2.52 | HIT-6, Change from baseline, mean [4]: −8.73 | HIT-6, LSMD vs placebo [4]: −3.18 | HIT-6, MMRM, LS mean change [4]: −8.37 | HIT-6, Post-baseline, mean [4]: 57.68 | MSQ v2.1 EF, Change from baseline, mean [4]: 30.17 | MSQ v2.1 EF, LSMD vs placebo [4]: 9.24 | MSQ v2.1 EF, MMRM, LS mean change [4]: 28.19 | MSQ v2.1 EF, Post-baseline, mean [4]: 70.79 | MSQ v2.1 RFP, Change from baseline, mean [4]: 24.95 | MSQ v2.1 RFP, LSMD vs placebo [4]: 8.89 | MSQ v2.1 RFP, MMRM, LS mean change [4]: 22.91 | MSQ v2.1 RFP, Post-baseline, mean [4]: 73.71 | MSQ v2.1 RFR, Change from baseline, mean [4]: 28.04 | MSQ v2.1 RFR, LSMD vs placebo [4]: 8.77 | MSQ v2.1 RFR, MMRM, LS mean change [4]: 25.56 | MSQ v2.1 RFR, Post-baseline, mean [4]: 61.53 | PHQ-9, ANCOVA, LS mean change [4]: −5.11 | PHQ-9, Change from baseline, mean [4]: −5.61 | PHQ-9, LSMD vs placebo [4]: −1.38
